Target: T1, human full-length MKNK1 (Homo sapiens, UniProt Q9BUB5, T385D)
T1 construct: GST (N); purchased Carna Biosciences 02-145; host or cells: insect cells (baculovirus expression system)
Assay: MKNK1 kinase high ATP assay (TR-FRET)
Format: biochemical
Settings: high ATP (2 mM final), 15 min preincubation with enzyme, GST-MKNK1 (T344D)
Method: MKNK1 Kinase High ATP Assay
MKNK1-inhibitory activity at high ATP of compounds of the present invention after their preincubation with MKNK1 was quantified employing the TR-FRET-based MKNK1 high ATP assay as described in the following paragraphs.
A recombinant fusion protein of Glutathione-S-Transferase (GST, N-terminally) and human full-length MKNK1 (amino acids 1-424 and T344D of accession number BAA 19885.1), expressed in insect cells using baculovirus expression system and purified via glutathione sepharose affinity chromatography, was purchased from Carna Biosciences (product no 02-145) and used as enzyme. As substrate for the kinase reaction the biotinylated peptide biotin-Ahx-IKKRKLTRRKSLKG (C-terminus in amide form) was used, which can be purchased e.g. from the company Biosyntan (Berlin-Buch, Germany).
For the assay 50 nL of a 100 fold concentrated solution of the test compound in DMSO was pipetted into a black low volume 384 well microtiter plate (Greiner Bio-One, Frickenhausen, Germany), 2 μL of a solution of MKNK1 in aqueous assay buffer [50 mM HEPES pH 7.5, 5 mM MgCL2, 1.0 mM dithiothreitol, 0.005% (v/v) Nonidet-P40 (Sigma)] was added and the mixture was incubated for 15 min at 22° C. to allow pre-binding of the test compounds to the enzyme before the start of the kinase reaction. Then the kinase reaction was started by the addition of 3 μL of a solution of adenosine-tri-phosphate (ATP, 3.3 mM=>final conc. in the 5 μL assay volume is 2 mM) and substrate (0.1 μM=>final conc. in the 5 μL assay volume is 0.06 μM) in assay buffer and the resulting mixture was incubated for a reaction time of 30 min at 22° C. The concentration of MKNK1 was adjusted depending of the activity of the enzyme lot and was chosen appropriate to have the assay in the linear range, typical concentrations were in the range of 0.003 μg/mL. The reaction was stopped by the addition of 5 μL of a solution of TR-FRET detection reagents (5 nM streptavidine-XL665 [Cisbio Bioassays, Codolet, France] and 1 nM anti-ribosomal protein S6 (pSer236)-antibody from Invitrogen [#44921G] and 1 nM LANCE EU-W1024 Labeled ProteinG [Perkin-Elmer, product no. AD0071]) in an aqueous EDTA-solution (100 mM EDTA, 0.1% (w/v) bovine serum albumin in 50 mM HEPES pH 7.5).
The resulting mixture was incubated for 1 h at 22° C. to allow the formation of complex between the phosphorylated biotinylated peptide and the detection reagents. Subsequently the amount of phosphorylated substrate was evaluated by measurement of the resonance energy transfer from the Eu-chelate to the streptavidine-XL. Therefore, the fluorescence emissions at 620 nm and 665 nm after excitation at 350 nm were measured in a TR-FRET reader, e.g. a Rubystar (BMG Labtechnologies, Offenburg, Germany) or a Viewlux (Perkin-Elmer). The ratio of the emissions at 665 nm and at […] was taken as the measure for the amount of phosphorylated substrate. The data were normalised (enzyme reaction without inhibitor=0% inhibition, all other assay components but no enzyme=100% inhibition).

T1 sequence (Q9BUB5 1-424 isoform Q9BUB5-2 T344D): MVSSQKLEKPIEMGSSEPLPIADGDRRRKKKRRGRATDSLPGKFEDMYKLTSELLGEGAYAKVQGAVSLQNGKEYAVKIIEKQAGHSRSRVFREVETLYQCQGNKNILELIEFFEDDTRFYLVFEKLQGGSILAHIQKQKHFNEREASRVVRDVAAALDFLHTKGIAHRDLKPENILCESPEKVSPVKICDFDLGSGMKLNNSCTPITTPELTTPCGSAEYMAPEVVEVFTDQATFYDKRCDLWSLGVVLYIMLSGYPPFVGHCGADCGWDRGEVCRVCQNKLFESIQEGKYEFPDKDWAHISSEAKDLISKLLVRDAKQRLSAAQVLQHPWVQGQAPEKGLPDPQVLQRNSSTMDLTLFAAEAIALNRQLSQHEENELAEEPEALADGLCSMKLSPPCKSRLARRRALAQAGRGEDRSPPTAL

Compound	IC50 [µM]
CCc1[nH]c2ncnc(Nc3ccc4[nH]c(=O)sc4c3)c2c1C [Example 1, 6-[(6-Ethyl-5-methyl-7H-pyrrolo[2,3-d]pyrimidin-4-yl)amino]-1,3-benzothiazol-2(3H)-one]	0.027
O=c1[nH]c2ccc(Nc3ncnc4[nH]cc(F)c34)cc2s1 [Example 2, 6-[(5-Fluoro-7H-pyrrolo[2,3-d]pyrimidin-4-yl)amino]-1,3-benzothiazol-2(3H)-one]	0.027
O=C(O)c1c[nH]c2ncnc(Nc3ccc4[nH]c(=O)sc4c3)c12 [Example 3, 4-[(2-Oxo-2,3-dihydro-1,3-benzothiazol-6-yl)amino]-7H-pyrrolo[2,3-d]pyrimidine-5-carboxylic acid]	0.007
CN1CCN(C(=O)c2c[nH]c3ncnc(Nc4ccc5[nH]c(=O)sc5c4)c23)CC1 [Example 4, 6-({5-[(4-Methylpiperazin-1-yl)carbonyl]-7H-pyrrolo[2,3-d]pyrimidin-4-yl}amino)-1,3-benzothiazol-2(3H)-one]	0.019
CC(C)NC(=O)c1c[nH]c2ncnc(Nc3ccc4[nH]c(=O)sc4c3)c12 [Example 5, N-Isopropyl-4-[(2-oxo-2,3-dihydro-1,3-benzothiazol-6-yl)amino]-7H-pyrrolo[2,3-d]pyrimidine-5-carboxamide]	0.004
O=c1[nH]c2ccc(Nc3ncnc4[nH]ccc34)cc2s1 [Example 6, 6-(7H-Pyrrolo[2,3-d]pyrimidin-4-ylamino)-1,3-benzothiazol-2(3H)-one]	0.019
O=c1[nH]c2ccc(Nc3ncnc4[nH]ncc34)cc2s1 [Example 7, 6-(1H-pyrazolo[3,4-d]pyrimidin-4-ylamino)-1,3-benzothiazol-2(3H)-one]	0.044
O=c1[nH]c2ccc(Nc3ncnc4[nH]c(Br)cc34)cc2s1 [Example 8, 6-[(6-Bromo-7H-pyrrolo[2,3-d]pyrimidin-4-yl)amino]-1,3-benzothiazol-2(3H)-one]	0.005
O=c1[nH]c2ccc(Nc3ncnc4[nH]cnc34)cc2s1 [Example 9, 6-(9H-Purin-6-ylamino)-1,3-benzothiazol-2(3H)-one]	0.011
CCOC(=O)c1cc2c(Nc3ccc4[nH]c(=O)sc4c3)ncnc2[nH]1 [Example 10, Ethyl 4-[(2-oxo-2,3-dihydro-1,3-benzothiazol-6-yl)amino]-7H-pyrrolo[2,3-d]pyrimidine-6-carboxylate]	0.002
O=c1[nH]c2ccc(Nc3ncnc4[nH]c(C#CCO)cc34)cc2s1 [Example 11, 6-{[6-(3-Hydroxyprop-1-yn-1-yl)-7H-pyrrolo[2,3-d]pyrimidin-4-yl]amino}-1,3-benzothiazol-2(3H)-one]	0.006
N#Cc1c[nH]c2ncnc(Nc3ccc4[nH]c(=O)sc4c3)c12 [Example 12, 4-[(2-Oxo-2,3-dihydro-1,3-benzothiazol-6-yl)amino]-7H-pyrrolo[2,3-d]pyrimidine-5-carbonitrile]	0.013
CCc1[nH]c2ncnc(Nc3cc4sc(=O)[nH]c4cc3OC)c2c1C [Example 13, 6-[(6-Ethyl-5-methyl-7H-pyrrolo[2,3-d]pyrimidin-4-yl)amino]-5-methoxy-1,3-benzothiazol-2(3H)-one]	0.006
Cc1cc2c(Nc3ccc4[nH]c(=O)sc4c3)ncnc2[nH]1 [Example 14, 6-[(6-Methyl-7H-pyrrolo[2,3-d]pyrimidin-4-yl)amino]-1,3-benzothiazol-2(3H)-one]	0.025
Cc1c[nH]c2ncnc(Nc3ccc4[nH]c(=O)sc4c3)c12 [Example 15, 6-[(5-Methyl-7H-pyrrolo[2,3-d]pyrimidin-4-yl)amino]-1,3-benzothiazol-2(3H)-one]	0.009
O=c1[nH]c2ccc(Nc3ncnc4[nH]c(Cl)cc34)cc2s1 [Example 16, 6-[(6-Chloro-7H-pyrrolo[2,3-d]pyrimidin-4-yl)amino]-1,3-benzothiazol-2(3H)-one]	0.011

Compound	IC50 [µM]
O=c1[nH]c2ccc(Nc3ncnc4[nH]c(CCCO)cc34)cc2s1 [Example 17, 6-{[6-(3-Hydroxypropyl)-7H-pyrrolo[2,3-d]pyrimidin-4-yl]amino}-1,3-benzothiazol-2(3H)-one]	0.009
COc1cc2[nH]c(=O)sc2cc1Nc1ncnc2[nH]c(Br)cc12 [Example 18, 6-[(6-Bromo-7H-pyrrolo[2,3-d]pyrimidin-4-yl)amino]-5-methoxy-1,3-benzothiazol-2(3H)-one]	0.018
COc1cc2[nH]c(=O)sc2cc1Nc1ncnc2[nH]ccc12 [Example 19, 5-Methoxy-6-(7H-pyrrolo[2,3-d]pyrimidin-4-ylamino)-1,3-benzothiazol-2(3H)-one]	0.011
CN(C)C(=O)c1c[nH]c2ncnc(Nc3ccc4[nH]c(=O)sc4c3)c12 [Example 20, N,N-dimethyl-4-[(2-oxo-2,3-dihydro-1,3-benzothiazol-6-yl)amino]-7H-pyrrolo[2,3-d]pyrimidine-5-carboxamide]	0.015
CC(C)Cc1[nH]c2ncnc(Nc3ccc4[nH]c(=O)sc4c3)c2c1C(C)C [Example 21, 6-[(6-Isobutyl-5-isopropyl-7H-pyrrolo[2,3-d]pyrimidin-4-yl)amino]-1,3-benzothiazol-2(3H)-one]	0.032
CCCc1[nH]c2ncnc(Nc3ccc4[nH]c(=O)sc4c3)c2c1CC [Example 22, 6-[(5-Ethyl-6-propyl-7H-pyrrolo[2,3-d]pyrimidin-4-yl)amino]-1,3-benzothiazol-2(3H)-one]	0.016
O=c1[nH]c2ccc(Nc3ncnc4[nH]c(S(=O)(=O)c5ccc(Cl)cc5)cc34)cc2s1 [Example 23, 6-({6-[(4-Chlorophenyl)sulfonyl]-7H-pyrrolo[2,3-d]pyrimidin-4-yl}amino)-1,3-benzothiazol-2(3H)-one]	0.012
Cc1ccc(S(=O)(=O)c2cc3c(Nc4ccc5[nH]c(=O)sc5c4)ncnc3[nH]2)cc1 [Example 24, 6-({6-[(4-Methylphenyl)sulfonyl]-7H-pyrrolo[2,3-d]pyrimidin-4-yl}amino)-1,3-benzothiazol-2(3H)-one]	0.005
CCOC(=O)c1cc2c(Nc3cc4sc(=O)[nH]c4cc3OC)ncnc2[nH]1 [Example 25, Ethyl 4-[(5-methoxy-2-oxo-2,3-dihydro-1,3-benzothiazol-6-yl)amino]-7H-pyrrolo[2,3-d]pyrimidine-6-carboxylate]	0.004
COc1cc2[nH]c(=O)sc2cc1Nc1ncnc2[nH]c(C(=O)O)cc12 [Example 26, 4-[(5-Methoxy-2-oxo-2,3-dihydro-1,3-benzothiazol-6-yl)amino]-7H-pyrrolo[2,3-d]pyrimidine-6-carboxylic acid]	0.021
O=c1[nH]c2ccc(Nc3ncnc4[nH]cc(Br)c34)cc2s1 [Example 27, 6-[(5-Bromo-7H-pyrrolo[2,3-d]pyrimidin-4-yl)amino]-1,3-benzothiazol-2(3H)-one]	0.006
COc1cc2[nH]c(=O)sc2cc1Nc1ncnc2[nH]cc(F)c12 [Example 28, 6-[(5-Fluoro-7H-pyrrolo[2,3-d]pyrimidin-4-yl)amino]-5-methoxy-1,3-benzothiazol-2(3H)-one]	0.001
CCCc1[nH]c2ncnc(Nc3cc4sc(=O)[nH]c4cc3OC)c2c1CC [Example 29, 6-[(5-Ethyl-6-propyl-7H-pyrrolo[2,3-d]pyrimidin-4-yl)amino]-5-methoxy-1,3-benzothiazol-2(3H)-one]	0.005
O=C(O)c1cc2c(Nc3ccc4[nH]c(=O)sc4c3)ncnc2[nH]1 [Example 30, 4-[(2-Oxo-2,3-dihydro-1,3-benzothiazol-6-yl)amino]-7H-pyrrolo[2,3-d]pyrimidine-6-carboxylic acid]	0.036
CN(C)C1CCN(C(=O)c2cc3c(Nc4ccc5[nH]c(=O)sc5c4)ncnc3[nH]2)CC1 [Example 31, 6-[(6-{[4-(Dimethylamino)piperidin-1-yl]carbonyl}-7H-pyrrolo[2,3-d]pyrimidin-4-yl)amino]-1,3-benzothiazol-2(3H)-one]	0.04
O=C(c1cc2c(Nc3ccc4[nH]c(=O)sc4c3)ncnc2[nH]1)N1CCOCC1 [Example 32, 6-{[6-(Morpholin-4-ylcarbonyl)-7H-pyrrolo[2,3-d]pyrimidin-4-yl]amino}-1,3-benzothiazol-2(3H)-one]	0.02

Source: patent publication US9382255B2, “Substituted pyrrolopyrimidinylamino-benzothiazolones as MKNK kinase inhibitors” (BAYER PHARMA AKTIENGESELLSCHAFT, priority 2012, dated 2016)
